Earlier results, collected in article PMC9054008 (Science Advances, 2022).

Molecular target: I-Ab (Mus musculus, UniProt P14434+P14483)
Details: cited from earlier work

I-Ab, sequence (P14434 whole entry, looked up): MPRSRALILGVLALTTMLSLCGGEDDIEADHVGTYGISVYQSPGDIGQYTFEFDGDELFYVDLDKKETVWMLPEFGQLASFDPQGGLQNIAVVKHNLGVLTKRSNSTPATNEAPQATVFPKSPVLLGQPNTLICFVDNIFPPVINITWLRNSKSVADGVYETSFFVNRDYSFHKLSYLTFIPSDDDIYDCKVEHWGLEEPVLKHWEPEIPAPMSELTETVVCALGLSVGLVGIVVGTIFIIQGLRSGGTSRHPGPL
I-Ab, sequence (P14483 whole entry, looked up): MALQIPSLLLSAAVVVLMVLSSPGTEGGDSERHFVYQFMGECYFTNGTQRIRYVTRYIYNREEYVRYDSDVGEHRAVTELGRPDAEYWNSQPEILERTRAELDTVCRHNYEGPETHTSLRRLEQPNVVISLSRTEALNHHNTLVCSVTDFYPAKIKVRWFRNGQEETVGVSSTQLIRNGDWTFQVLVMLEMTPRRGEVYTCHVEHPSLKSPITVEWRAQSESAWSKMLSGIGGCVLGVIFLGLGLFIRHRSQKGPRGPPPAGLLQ

| Sequence | IC50 [µM] |
| --- | --- |
| IEDAKRMIAISAKVA | 6.99 |
| ILKGVINIWGSGLLQ | 7.27 |
| SGDAMARNISSRTLE | 5.34 |
| EEALNVALAVVTLLA | 2.73 |
| NSLILLECFVRSSPA | 6.03 |
| RHIVGKPCPKPHRLN | 8.7 |
| KVFNTRRNTLLFLDL | 4.62 |
| MGQLISFFGEIPSII | 9.64 |
| TKKSIKEIASSISRL | 3.77 |
| MDLADLFNAQPGLTS | 5.78 |
